Data taken from patent US9532997B2, “Compositions and methods for promoting intestinal stem cell function” (Whitehead Institute for Biomedical Research, priority 2012, dated 2017).
Entries after “also recorded” stand apart in the source; their conditions may differ. Each block holds one compound with its values, some of them ahead of it.

Key:
AL and CR-derived crypts = assay: Crypt culture organoid formation with agent added to culture media; type: cell-based, mice; conditions: for organoid forming capacity of AL and CR-derived crypts: 100 nM, FIG. 4h
Description: Small intestines were removed and the fat/mesentery was dissected away. The intestinal lumen was washed with ice cold PBS (Mg—/Ca—) using a 18 G feeding needle (Roboz FN-7905) until the intestines appeared white/pink. They were then opened longitudinally. The mucous was removed by gently rubbing the intestine between fingers in cold PBS. The intestines were cut into 3 to 5 mm fragments and placed into 50 ml conical tubes that were fill with ice cold 30 ml of PBS (Mg—/Ca—)/EDTA (10 mM). The samples were incubated and shook intermittently on ice for 30 minutes continuously discarding and replacing (at least 3 times) the supernatant. The fragments were then continually resuspended with ice cold 30 ml PBS (Mg—/Ca—)/EDTA (10 mM) and intermittently shook on ice for 10 minutes, discarding the supernatant again for 3 times. The fragments were resuspended again with ice cold 30 ml PBS (Mg—/Ca—)/EDTA (10 mM) and incubated and intermittently shook while waiting on ice for 20 to 40 minutes. The samples were then triturated with a 10 ml pipette 1 to 2 times, and the contents were filtered twice through a 70-μm mesh (BD Falcon) into a 50 ml conical tube to remove villous material and tissue fragments. At this point the suspension was mainly composed of crypts. Crypts were removed from this step for crypt culture experiments and embedded in matrigel with crypt culture media. For ISC isolation, the crypt suspensions were centrifuged for 5 minutes at 250 g (4 C or room temperature). The pellets were gently resuspended in 1.0 ml of undiluted TrypLE Express (Invitrogen)+120 μl of DNase I (10 U/μl, Roche) and transferred to 15 ml conical tubes. The samples were incubated in a 32° C. water bath for 1.25 to 2 minutes, were not titurated, and were then placed on ice. 12 ml of cold SMEM was added to each sample and were gently triturated twice. […]
Isolated crypts were counted and embedded in matrigel (BD Bioscience 356231 growth factor reduced) that contains 1 μM Jagged (Ana-Spec) at 5-10 crypts/μl and cultured in a modified form of medium as described in^3. […]

mTORC1 = target: T1, mTORC1 (Mus musculus, UniProt P26883+Q9JLN9); assay: Phospho-S6 (P-S6) immunostain as mTORC1 reporter in intestine / sorted Paneth cells; type: in vivo, mice
T1 construct: from tissue; host or cells: mouse small intestine sections, isolated crypts and sorted Paneth cells
From the text: Mice were housed in the Unit for Laboratory Animal Medicine at the Whitehead Institute for Biomedical Research. Lgr5-EGFP-IRES-CreERT2 mice (Strain name: B6.129P2-Lgr5tm1(cre/ERT2)Cle/J, Stock Number: 008875) were purchased from Jackson Laboratories. UbiquitinC-CreERT2 mice were obtained from the Jackson Laboratory (Strain Name: B6; 129S-Tg(UBC-cre/ERT2)1Ejb/J, Stock Number: 007001). Rictor floxed mice were generated as described in^27 and backcrossed to C57BL/6 for at least 6 generations. TSC1^loxp/loxp mice were the generous gift of D. Kwiatkowski (Harvard Medical School) and backcrossed to C57BL/6 for at least 6 generations. Rosa26-CreERT2 mice (Rosa26 or R26) were obtained from the Jackson Laboratory (Strain 15 Name: B6.129-Gt(ROSA)26Sor^iml(cre/ERT2)Tyj/J, Stock Number 008463). CR was achieved by providing individual or paired mice a daily portion of a chow diet fortified with vitamins and minerals amounting to 60% of the daily food intake of their ad libitum counterparts^20. All adult mice used in CR experiments were between the ages of 10 to 24 weeks and were sacrificed prior to their daily feeding. Rictor or TSC1 was excised by treatment with tamoxifen suspended in corn or sunflower seed oil (Spectrum) at a concentration of 10 mg/mL, and 200 μl per 25 g of body weight was injected intraperitoneally into mice once daily for 5-7 days. […] Mice were allowed to recover for at least 7 days after the last tamoxifen injection prior to any experiments. In vivo fate mapping in Lgr5-EGFP-IRES-reERT2; Rosa26loxpstoploxp-LacZ compound mice was done with a single injection of tamoxifen given at 200 μl per 25 g. As described previously^28, Rapamycin (LC Laboratories) was administered by intraperitoneal injection for 7 to 28 consecutive doses at 4 mg/kg. It was reconstituted in absolute ethanol at 10 mg/ml and diluted in 5% Tween-80 (Sigma) and 5% PEG-400 (Hampton Research) before injection. The final volume of all injections was 200 μl. Regular insulin (Lilly) was administered at 0.75 U/kg diluted in PBS 20 minutes prior to sacrificing fasted mice. […]

Bst-1 = target: T2, Bst-1 (Mus musculus, UniProt Q64277); assay: Bst-1 siRNA knock-down in CR-derived crypts, organoid formation; type: cell-based, mice; conditions: cADPR added to siRNA-treated crypts
T2 construct: endogenous in cells; host or cells: primary small-intestinal crypts from calorie-restricted mice, cultured in matrigel
T2 sequence (Q64277 25-286): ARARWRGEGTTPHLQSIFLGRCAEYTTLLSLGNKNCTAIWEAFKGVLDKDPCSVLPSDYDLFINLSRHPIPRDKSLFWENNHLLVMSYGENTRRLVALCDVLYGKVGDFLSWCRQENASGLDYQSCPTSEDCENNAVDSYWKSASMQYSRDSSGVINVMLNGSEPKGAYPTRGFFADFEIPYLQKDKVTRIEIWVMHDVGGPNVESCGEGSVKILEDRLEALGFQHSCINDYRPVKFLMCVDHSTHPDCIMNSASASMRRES
Description: Isolated ISCs or Paneth cells were centrifuged for 5 minutes at 250 g and then resuspended in the appropriate volume of crypt culture medium (500-1000 cells/μl) supplemented with 1×N2 (Invitrogen), 1×B27 (Invitrogen), 100 ng/ml Wnt-3A (R&D), and with additional 500 ng/ml R-Spondin to yield 1 μg/ml final concentration. ISCs were then seeded into matrigel (BD Bioscience 356231 growth factor reduced) containing 1 μM Jagged (Ana-Spec) up to 5,000-10,000 cells/30-50 μl. 30 μl drops of 65% matrigel were plated onto a flat bottom 48-well plate (Corning 3548) and then Paneth cells were added at the same cell count to the top of the matrigel drop. Alternatively, ISCs and Paneth cells were mixed after sorting in a 1:1 ratio, centrifuged, and then seeded into matrigel. The matrigel drops with ISCs and Paneth cells were allowed to solidify for 20 to 30 minutes in a 37° C. incubator. […] Organoid bodies were quantitated on days 3, 7, and 9 days of culture, unless otherwise specified. In subcloning experiments, either individual or cultures of organoids were manually disrupted as indicated in the text on day 7-9 by rigorous tituration and replated into fresh matrigel; these secondary organoid bodies were quantitated on day 18 after initiation of the primary cultures. […]

Compound: OCCN(CCO)c1nc(N2CCCCC2)c2nc(N(CCO)CCO)nc(N3CCCCC3)c2n1 [Dipyridamole]
organoid forming capacity of AL and CR-derived crypts (AL and CR-derived crypts): reduced the organoid forming capacity of AL and CR-derived crypts to a similar level
organoid forming capacity of AL and CR-derived crypts (AL and CR-derived crypts; listed as dipyridamole): reduced the clonogenicity of CR and AL-derived crypts to same level

P-S6 in sorted Paneth cells from fasted mice (mTORC1; 20 minutes after injection, FIG. 2b): induced
mTORC1 activity (P-S6) in Paneth cells (mTORC1; fasted mice, insulin 0.75 U/kg, FIG. 2a): activates mTORC1 in Paneth cells
Compound: insulin: Regular insulin (Lilly) administered at 0.75 U/kg to fasted mice

Compound: N=c1c2ncn3c2ncn1[C@@H]1O[C@H](COP(=O)(O)OP(=O)(O)OC[C@H]2O[C@@H]3[C@H](O)[C@@H]2O)[C@@H](O)[C@H]1O [cADPR, cyclic ADP ribose]
organoid forming potential (clonogenicity and size) of AL crypts (AL and CR-derived crypts; 50 μM added to culture media, FIG. 4e): significantly improved the clonogenicity and size of AL-derived organoid bodies; also recorded: increased the organoid forming potential of AL crypts to an extent similar to those of CR crypts
rescue of function of Bst-1 knock-down CR crypts (Bst-1): sufficient to rescue the function of these crypts
